Data as given in patent US20070218080A1, “Peptide antigen of human papillomavirus type 16 and application thereof” (Mackay Memorial Hospital, priority 2006, published 2007).

Assays:
[1] = system: CD8+IFN-γ+ double-positive cells; assay: In vivo induction of CD8 T cells proliferation; set-up: species or system HLA-A2.1 transgenic C57BL/6 mice
Method: 4-6 week-old HLA-A2.1 transgenic C57BL/6 mice were immunized with 100 μl containing 100 μg of SEQ ID NO: 1 peptide in adjuvant at 0.2 μM of CpG phosphorethioate oligodeoxynucleotide 1826 (CpG ODN 1826) via intramuscular injection three times at one week intervals. Five days after the third immunization, the splenocytes of mice were recovered and the numbers of CD8^+IFN-γ^+ double-positive cells were measured using flow cytometry analyses.

[2] = system: β-lymphocyte (HMy2.CIR, ATCC No.: CRL-1993) target cells; assay: Cytotoxicity assay (CTL activity); format: cell-based; details: splenocytes of immunized mice as effector cells
Method: The β-lymphocyte (HMy2.CIR, ATCC No.: CRL-1993) target cells were labeled with PKH-26 and carboxyfluorescein diacetate succinimidyl ester (CFSE). 4-6 week-old HLA-A2.1 transgenic C57BL/6 mice were immunized as described in Example 2 with 100 μl of the same dosage of SEQ ID NO: 1 peptide in adjuvant of CpG oligodeoxynucleotide via intramuscular injection three times at one week intervals. Five days after the third immunization, the splenocytes of mice were recovered as effector cells and incubated with the target cells […].
Target cells labeled with two dyes were cultivated in the absence of effector cells as the control group. When membrane damage occurs, the dye is almost instantaneously lost and the cells are no longer able to take up the charged dye.

[3] = target: T1, HLA-A2.1 antigens on T2 cell surface (Homo sapiens, UniProt P04439, D140Y/D185E/D98H/E176V/E277Q/G131W/G231S/I119V/I121R/I166T/I218V/L300P/L318F/N151K/N90K/P208A/P217A/Q86G/Q94H/R138H/R169H/T345S); assay: T2 cell binding assay; format: cell-based; details: T2 cells, 10 μg/ml synthetic peptide, 20 hours at 26° C., flow cytometry
T1 construct: endogenous in cells; host or cells: T2 cells
Source text: The binding test of the peptide in the invention was subjected to a T2 cell binding assay to measure the binding affinity for HLA-A2.1 antigens on T2 cell surface. T2 cells lack genes coding for transporter proteins for antigenic peptides (TAP1/TAP2) and therefore is not able to translocate peptide antigens processed by cells into the endoplasmic reticulum (ER). […] Therefore, the synthetic peptide antigens were used directly, not through cell processing, for the binding test with HLA-A2.1 antigens on T2 cell surface.
T2 cells that had been incubated overnight at 26° C. in RPMI 1640 containing 5% fetal bovine serum (FBS) were mixed with 10 μg/ml of pre-prepared synthetic peptide for 20 hours at 26° C. in RPMI containing 5% FCS and 5 μg/ml human β 2-microglobulin (β 2 m). The cells were then washed twice, incubated at 37° C. for 2 hours. […] Then the cells were incubated with fluorescein isothiocyanate (FITC) labeled anti-human HLA-A2.1 antibodies (BD Biosciences Pharmingen) to stain HLA-A2.1. The stains were fixed with 1% paraformaldehyde, and analyzed by flow cytometry. Because the binding of synthetic peptides and HLA-A2.1 antigens would be presented on the surface of lymphocytes, which could be recognized and bound by anti-human HLA-A2.1 antibodies. Therefore the fluorescein indicated the binding of synthetic peptides.

| Substance | number of CD8+IFN-γ+ double-positive cells ([1]; splenocytes five days after third immunization, 100 μg peptide with CpG ODN 1826, intramuscular, three times at one week intervals) [%] | increase of CD8+IFN-γ+ double-positive cells in comparison to the irrelevant stimulator ([1]; splenocytes of immunized mice vs control group) | cytolytic activity ([2]; ET ratio 10) [%] | cytolytic activity ([2]; ET ratio 150) [%] | fluorescence intensity (FITC anti-human HLA-A2.1 staining) [3] |
| --- | --- | --- | --- | --- | --- |
| SEQ ID NO: 1: synthetic 9-amino-acid peptide, 63th to 71th amino acid sequence of HPV-16 E5 protein (YIIFVYIPL; Human papillomavirus type 16) | 0.32 | about 4 fold | 18 | 33 | around 22% |
| positive control: HLA-A2.1 binding peptide obtained from tyrosinase peptide 369-377, positive control [reference compound] |  |  |  |  | around 35% |
